Measured values as given in US20120146009A1, “NOVEL COMPOUND, FIELD-EFFECTIVE TRANSISTOR, SOLAR CELL, METHOD FOR PRODUCING SAID COMPOUND, FIELD-EFFECTIVE TRANSISTOR, AND SOLAR CELL, COMPOSITION FOR ORGANIC SEMICONDUCTOR LAYER, AND COMPOSITION FOR P-TYPE SEMICONDUCTOR LAYER” (Sharp Kabushiki Kaisha, priority 2009, published 2012).
Where two headings read alike, the source gives them in different places. One block for each compound: values may come before it.

Assays:
[1] = Properties of the isolated crystal in the atmosphere; type: physicochemical; settings: yellow crystal
Procedure: Into an anhydrous DMF (15 ml) solution of Intermediate 1 (0.42 g, 1.5 mmol), sodium hydride (60%, 0.13 g, 3.1 mmol) was added little by little. The resultant solution was left at room temperature for 2 hours. After that, 1-bromohexane (0.5 g, 3 mmol) was added to the solution, and the solution was agitated for further 2 hours. A solvent was removed away under reduced pressure, and a residue was extracted with methylene chloride. The residue from which the solvent was distilled away was recrystallized from hexane so that 0.28 g of Compound 1 was obtained (yield: 41%).

[2] = Absorption spectrum in CH2Cl2; type: physicochemical
Procedure: (§1) An absorption spectrum (absorption peak wavelength λmax, molar absorbance coefficient c) of Compound 1 thus synthesized was measured. Further, a HOMO level (ionization potential) of Compound 1 was measured by photoelectric spectroscopy in the atmosphere (SC-2).
(§2) Note that, for the result of pentacene shown in Table 2, the absorption spectrum described in Reference Document 1 (J. Am. Chem. Soc. 2007, 129, 2225) was used, and the HOMO level described in Reference Document 2 (Jpn. J. Appl. Phys. 2005, 44, 561) was used.

[3] = Stability against aerial oxidation (absorption intensity of solution in air-saturated methylene chloride, dark place); type: physicochemical; settings: immediately after preparation to 1 week
Procedure: Next, stability of Compound 1 against aerial oxidation was evaluated. A solution of Compound 1 was prepared with the use of air-saturated methylene chloride as a solvent, and was left in a dark place. The absorption spectrum was measured during a time period from immediately after the preparation to 1 week after the preparation, so as to trace how an absorption intensity of the solution of Compound 1 was changed during the above time period (see Reference Document 1 described above).

[4] = HOMO level (ionization potential) by photoelectric spectroscopy in the atmosphere; type: physicochemical
Procedure: as §1, §2

Solubility in solvent = type: physicochemical
[5] = background statement; cited from earlier work
[6] = same condition, left for 24 hours, Reference Document 1; cited from earlier work
[7] = from Reference Document 1; cited from earlier work
[8] = from Reference Document 2; cited from earlier work

- Hydroscopic property [1]: no hydroscopic property
- Absorption spectrum λ max ([2]; in CH2CL2): 422 nm
- Absorption spectrum log ε ([2]; in CH2CL2, at λ max): (log ε = 4.58)
- Change in absorption intensity of solution [3]: no change in absorption intensity
- Photoelectric spectroscopy HOMO [4]: −4.89 eV
- Resolvability with respect to a solvent (Solubility in solvent): excellent resolvability
Compound: CCCCCCN1c2cc3ccccc3cc2N(CCCCCC)c2cc3ccccc3cc21 [Compound 1]
- Stability in the atmosphere [1]: stable compound without any deterioration in the atmosphere

Compound: c1ccc2cc3c(cc2c1)Nc1cc2ccccc2cc1N3 [DHDAP, dihydrodiazapentacene]
- Solubility [5]: low in solubility

Compound: c1ccc2cc3cc4cc5ccccc5cc4cc3cc2c1 [Pentacene, pentacene]
- Change in absorption intensity of solution [6]: absorption intensity was substantially eliminated
- Absorption spectrum λ max [7]: 575 nm
- Photoelectric spectroscopy HOMO [8]: −5.0 eV
